According to publication PMC6600388 (2019):
Read-outs that look alike come from different tables or passages of the source. Residues, ends and D or L forms follow the SMILES beside them.

System: human red blood cells

Row | Compound | IC50 (red cells of human, pH 5.5) | IC50 (red cells of human, pH 7.4) | IC50 (read-out: RBC Lysis IC50, pH 5.5, pH 5.5) | IC50 (read-out: RBC Lysis IC50, pH 7.4, pH 7.4)
1 | CC[C@H](C)[C@H](NC(=O)[C@H](CC(C)C)NC(=O)[C@H](CCC(=O)O)NC(=O)[C@H](CCC(=O)O)NC(=O)[C@@H](NC(=O)[C@H](CCC(=O)O)NC(=O)[C@H](CCC(=O)O)NC(=O)[C@H](Cc1ccccc1)NC(=O)[C@H](CC(C)C)NC(=O)CNC(=O)[C@@H](N)CS)[C@@H](C)CC)C(=O)N[C@@H](CCC(=O)O)C(=O)N[C@@H](CCC(=O)O)C(=O)NCC(=O)N[C@@H](CC(C)C)C(=O)N[C@@H](CCC(=O)O)C(=O)N[C@@H](CC(N)=O)C(=O)N[C@@H](CC(C)C)C(=O)N[C@H](C(=O)N[C@@H](CC(=O)O)C(=O)N[C@@H](Cc1c[nH]c2ccccc12)C(=O)N[C@@H](Cc1c[nH]c2ccccc12)C(=O)N[C@@H](Cc1ccc(O)cc1)C(=O)NCC(=O)N[C@@H](Cc1ccc(O)cc1)C(=O)NCC(=O)N[C@@H](Cc1c[nH]cn1)C(=O)N[C@@H](CCCCN)C(=O)N[C@@H](CCCCN)C(=O)N[C@@H](Cc1c[nH]cn1)C(=O)N[C@@H](Cc1c[nH]cn1)C(=O)N[C@@H](CCC(N)=O)C(=O)N[C@@H](Cc1c[nH]cn1)C(=O)N[C@@H](CCCNC(=N)N)C(N)=O)[C@@H](C)CC [Peptide 69] (H-CGLFEEIEELIEEGLENLIDWWYGYGHKKHHQHR-NH2) | 8.73 µM | > 20 µM |  | 
2 | CGLFEAIEGFIENGWEGMIDGWYG(Peg 3)YGRKKRRQRR [Peptide 36c] |  |  | 1.92 µM | > 10 µM
3 | CC[C@H](C)[C@H](NC(=O)[C@H](C)NC(=O)[C@H](Cc1c[nH]cn1)NC(=O)[C@H](Cc1ccccc1)NC(=O)[C@H](CC(C)C)NC(=O)CNC(=O)[C@@H](N)CS)C(=O)N[C@@H](C)C(=O)N[C@@H](Cc1c[nH]cn1)C(=O)N[C@@H](Cc1ccccc1)C(=O)N[C@H](C(=O)N[C@@H](Cc1c[nH]cn1)C(=O)NCC(=O)NCC(=O)N[C@@H](Cc1c[nH]c2ccccc12)C(=O)N[C@@H](Cc1c[nH]cn1)C(=O)NCC(=O)N[C@@H](CC(C)C)C(=O)N[C@H](C(=O)N[C@@H](Cc1c[nH]cn1)C(=O)NCC(=O)N[C@@H](Cc1c[nH]c2ccccc12)C(=O)N[C@@H](Cc1ccc(O)cc1)C(=O)NCC(=O)N[C@@H](Cc1ccc(O)cc1)C(=O)NCC(=O)N[C@@H](CCCNC(=N)N)C(=O)N[C@@H](CCCCN)C(=O)N[C@@H](CCCCN)C(=O)N[C@@H](CCCNC(=N)N)C(=O)N[C@@H](CCCNC(=N)N)C(=O)N[C@@H](CCC(N)=O)C(=O)N[C@@H](CCCNC(=N)N)C(=O)N[C@@H](CCCNC(=N)N)C(N)=O)[C@@H](C)CC)[C@@H](C)CC [Peptide 7] (H-CGLFHAIAHFIHGGWHGLIHGWYGYGRKKRRQRR-NH2) | 5.9 µM | 0.3 µM |  | 
4 | CC[C@H](C)[C@H](NC(=O)[C@H](C)NC(=O)[C@H](CCC(=O)O)NC(=O)[C@H](Cc1ccccc1)NC(=O)[C@H](CC(C)C)NC(=O)CNC(=O)[C@@H](N)CS)C(=O)N[C@@H](C)C(=O)NCC(=O)N[C@@H](Cc1ccccc1)C(=O)N[C@H](C(=O)N[C@@H](CCC(=O)O)C(=O)N[C@@H](CC(N)=O)C(=O)NCC(=O)N[C@@H](Cc1c[nH]c2ccccc12)C(=O)N[C@@H](CCC(=O)O)C(=O)NCC(=O)N[C@@H](CCSC)C(=O)N[C@H](C(=O)N[C@@H](CC(=O)O)C(=O)NCC(=O)N[C@@H](Cc1c[nH]c2ccccc12)C(=O)N[C@@H](Cc1ccc(O)cc1)C(=O)NCC(N)=O)[C@@H](C)CC)[C@@H](C)CC [Peptide 3, reference compound] (H-CGLFEAIAGFIENGWEGMIDGWYG-NH2) | > 20 µM | > 20 µM |  | 
5 | CC[C@H](C)[C@H](NC(=O)[C@H](C)NC(=O)[C@H](CCC(=O)O)NC(=O)[C@H](C)NC(=O)[C@H](CC(C)C)NC(=O)CNC(=O)[C@@H](N)CS)C(=O)N[C@@H](CCC(=O)O)C(=O)NCC(=O)N[C@@H](Cc1ccccc1)C(=O)N[C@H](C(=O)N[C@@H](CCC(=O)O)C(=O)N[C@@H](CC(N)=O)C(=O)NCC(=O)N[C@@H](CC(C)C)C(=O)N[C@@H](CCCCN)C(=O)NCC(=O)N[C@@H](CC(C)C)C(=O)N[C@H](C(=O)N[C@@H](CC(=O)O)C(=O)N[C@@H](Cc1c[nH]c2ccccc12)C(=O)N[C@@H](Cc1c[nH]c2ccccc12)C(=O)N[C@@H](Cc1ccc(O)cc1)C(=O)NCC(=O)N[C@@H](Cc1ccc(O)cc1)C(=O)NCC(=O)N[C@@H](CCCNC(=N)N)C(=O)N[C@@H](CCCCN)C(=O)N[C@@H](CCCCN)C(=O)N[C@@H](CCCNC(=N)N)C(=O)N[C@@H](CCCNC(=N)N)C(=O)N[C@@H](CCC(N)=O)C(=O)N[C@@H](CCCNC(=N)N)C(=O)N[C@@H](CCCNC(=N)N)C(N)=O)[C@@H](C)CC)[C@@H](C)CC [Peptide 58] (H-CGLAEAIEGFIENGLKGLIDWWYGYGRKKRRQRR-NH2) | 0.06 µM | 2 µM |  | 
6 | CC[C@H](C)[C@H](NC(=O)[C@H](CCC(=O)O)NC(=O)CNC(=O)[C@H](Cc1ccccc1)NC(=O)[C@H](CC(C)C)NC(=O)CNC(=O)[C@@H](N)CS)C(=O)N[C@@H](CCC(=O)O)C(=O)N[C@@H](CCC(=O)O)C(=O)N[C@@H](Cc1ccccc1)C(=O)N[C@H](C(=O)N[C@@H](CCC(=O)O)C(=O)N[C@@H](CCC(=O)O)C(=O)NCC(=O)N[C@@H](Cc1c[nH]c2ccccc12)C(=O)N[C@@H](CCC(=O)O)C(=O)N[C@@H](CC(N)=O)C(=O)N[C@@H](Cc1ccccc1)C(=O)N[C@H](C(=O)N[C@@H](CC(=O)O)C(=O)N[C@@H](Cc1c[nH]c2ccccc12)C(=O)N[C@@H](Cc1c[nH]c2ccccc12)C(=O)N[C@@H](Cc1ccc(O)cc1)C(=O)NCC(=O)N[C@@H](Cc1ccc(O)cc1)C(=O)NCC(=O)N[C@@H](CCCNC(=N)N)C(=O)N[C@@H](CCCCN)C(=O)N[C@@H](CCCCN)C(=O)N[C@@H](CCCNC(=N)N)C(=O)N[C@@H](CCCNC(=N)N)C(=O)N[C@@H](CCC(N)=O)C(=O)N[C@@H](CCCNC(=N)N)C(=O)N[C@@H](CCCNC(=N)N)C(N)=O)[C@@H](C)CC)[C@@H](C)CC [Peptide 66] (H-CGLFGEIEEFIEEGWENFIDWWYGYGRKKRRQRR-NH2) | 4.08 µM | > 20 µM |  | 
7 | N=C(N)NCCC[C@H](NC(=O)[C@H](CCCNC(=N)N)NC(=O)[C@H](CCC(N)=O)NC(=O)[C@H](CCCNC(=N)N)NC(=O)[C@H](CCCNC(=N)N)NC(=O)[C@H](CCCCN)NC(=O)[C@H](CCCCN)NC(=O)[C@H](CCCNC(=N)N)NC(=O)CNC(=O)[C@H](Cc1ccc(O)cc1)NC(=O)[C@@H](N)CS)C(N)=O [Peptide 1, reference compound] (H-CYGRKKRRQRR-NH2) | > 20 µM | > 20 µM |  | 
8 | CC[C@H](C)[C@H](NC(=O)[C@H](CC(C)C)NC(=O)[C@H](CCC(=O)O)NC(=O)[C@H](CCC(=O)O)NC(=O)[C@@H](NC(=O)[C@H](CCC(=O)O)NC(=O)[C@H](CCC(=O)O)NC(=O)[C@H](Cc1ccccc1)NC(=O)[C@H](CC(C)C)NC(=O)CNC(=O)[C@@H](N)CS)[C@@H](C)CC)C(=O)N[C@@H](CCC(=O)O)C(=O)N[C@@H](CCC(=O)O)C(=O)NCC(=O)N[C@@H](CC(C)C)C(=O)N[C@@H](CCC(=O)O)C(=O)N[C@@H](CC(N)=O)C(=O)N[C@@H](CC(C)C)C(=O)N[C@H](C(=O)N[C@@H](CC(=O)O)C(=O)N[C@@H](Cc1c[nH]c2ccccc12)C(=O)N[C@@H](Cc1c[nH]c2ccccc12)C(=O)N[C@@H](Cc1ccc(O)cc1)C(=O)NCC(=O)N[C@@H](Cc1ccc(O)cc1)C(=O)NCC(=O)N[C@@H](CCCNC(=N)N)C(=O)N[C@@H](CCCCN)C(=O)N[C@@H](CCCCN)C(=O)N[C@@H](CCCNC(=N)N)C(=O)N[C@@H](CCCNC(=N)N)C(=O)N[C@@H](CCC(N)=O)C(=O)N[C@@H](CCCNC(=N)N)C(=O)N[C@@H](CCCNC(=N)N)C(N)=O)[C@@H](C)CC [Peptide 68] (H-CGLFEEIEELIEEGLENLIDWWYGYGRKKRRQRR-NH2) | 4.11 µM | > 20 µM |  | 
9 | CC[C@H](C)[C@H](NC(=O)[C@H](CC(C)C)NC(=O)[C@H](CCC(=O)O)NC(=O)[C@H](CCC(=O)O)NC(=O)[C@@H](NC(=O)[C@H](CCC(=O)O)NC(=O)[C@H](CCC(=O)O)NC(=O)[C@H](Cc1ccccc1)NC(=O)[C@H](CC(C)C)NC(=O)CNC(=O)[C@@H](N)CS)[C@@H](C)CC)C(=O)N[C@@H](CCC(=O)O)C(=O)N[C@@H](CCC(=O)O)C(=O)NCC(=O)N[C@@H](CC(C)C)C(=O)N[C@@H](CCCCN)C(=O)N[C@@H](CC(N)=O)C(=O)N[C@@H](CC(C)C)C(=O)N[C@H](C(=O)N[C@@H](CC(=O)O)C(=O)N[C@@H](Cc1c[nH]c2ccccc12)C(=O)N[C@@H](Cc1c[nH]c2ccccc12)C(=O)N[C@@H](Cc1ccc(O)cc1)C(=O)NCC(=O)N[C@@H](Cc1ccc(O)cc1)C(=O)NCC(=O)N[C@@H](Cc1c[nH]cn1)C(=O)N[C@@H](CCCCN)C(=O)N[C@@H](CCCCN)C(=O)N[C@@H](Cc1c[nH]cn1)C(=O)N[C@@H](Cc1c[nH]cn1)C(=O)N[C@@H](CCC(N)=O)C(=O)N[C@@H](Cc1c[nH]cn1)C(=O)N[C@@H](CCCNC(=N)N)C(N)=O)[C@@H](C)CC [Peptide 70] (H-CGLFEEIEELIEEGLKNLIDWWYGYGHKKHHQHR-NH2) | 2.28 µM | > 20 µM |  | 
10 | CC[C@H](C)[C@H](NC(=O)[C@H](CCC(=O)O)NC(=O)CNC(=O)[C@H](Cc1ccccc1)NC(=O)[C@H](CC(C)C)NC(=O)CNC(=O)[C@@H](N)CS)C(=O)N[C@@H](CCC(=O)O)C(=O)N[C@@H](CCC(=O)O)C(=O)N[C@@H](CC(C)C)C(=O)N[C@H](C(=O)N[C@@H](CCC(=O)O)C(=O)N[C@@H](CCC(=O)O)C(=O)NCC(=O)N[C@@H](CC(C)C)C(=O)N[C@@H](CCC(=O)O)C(=O)N[C@@H](CC(N)=O)C(=O)N[C@@H](CC(C)C)C(=O)N[C@H](C(=O)N[C@@H](CC(=O)O)C(=O)N[C@@H](Cc1c[nH]c2ccccc12)C(=O)N[C@@H](Cc1c[nH]c2ccccc12)C(=O)N[C@@H](Cc1ccc(O)cc1)C(=O)NCC(=O)N[C@@H](Cc1ccc(O)cc1)C(=O)NCC(=O)N[C@@H](Cc1c[nH]cn1)C(=O)N[C@@H](CCCCN)C(=O)N[C@@H](CCCCN)C(=O)N[C@@H](Cc1c[nH]cn1)C(=O)N[C@@H](Cc1c[nH]cn1)C(=O)N[C@@H](CCC(N)=O)C(=O)N[C@@H](Cc1c[nH]cn1)C(=O)N[C@@H](CCCNC(=N)N)C(N)=O)[C@@H](C)CC)[C@@H](C)CC [Peptide 64] (H-CGLFGEIEELIEEGLENLIDWWYGYGHKKHHQHR-NH2) | 3.91 µM | > 20 µM |  | 
